Measured values as given in patent US20240041856A1, “LIQUID APIXABAN FORMULATION IN SMALL DOSE VOLUME” (DAFECHEM LIMITED, priority 2020, published 2024).

Assays:
[1] = Solubility of apixaban in propylene glycol based vehicles; format: physicochemical
Experimental: (§1) However, for achieving solutions of apixaban with concentration of more than 0.5 mg/mL in a vehicle comprising at least 35% (w/v) propylene glycol based on the total formulation, heating within the range of 25-90° C. is applied so to achieve full and quick solubilization of apixaban.
Concentrated solutions of apixaban are necessary in order to achieve low dosage volumes. The temperature of the mixture of apixaban and optionally co-solvents can be up to 90° C.

[2] = Stability of apixaban in propylene glycol on heating; format: physicochemical; conditions: temperature increase up to 90° C.
Experimental: as §1

Dissolution of apixaban in the vehicle ([1]; 0.25 mg/mL apixaban, vehicle with at least 35% (w/v) propylene glycol, room temperature): dissolves freely | Most concentrated apixaban solutions prepared ([1]; dissolving at temperature up to 90° C. in at least 35% (w/v) of propylene glycol): up to 10 mg/mL | Stability of apixaban in propylene glycol [2]: stable
Structure (SMILES): COc1ccc(-n2nc(C(N)=O)c3c2C(=O)N(c2ccc(N4CCCCC4=O)cc2)CC3)cc1 [Apixaban, 1-(4-methoxyphenyl)-7-oxo-6-[4-(2-oxopiperidin-1-yl)phenyl]-4,5,6,7-tetrahydro-1H-pyrazolo[3,4c]pyridine-3-carboxamide]
